# Test results as given in patent US20230322747A1, “OXADIAZOLE HDAC6 INHIBITORS AND USES THEREOF” (Eikonizo Therapeutics, Inc., priority 2022, published 2023).
# pIC50: −log10 of the molar value.
# Tests used:
# [1] = molecular target: Human HDAC8 (Homo sapiens (Human), UniProt Q9BY41); assay: Caliper endpoint assay for HDAC8 enzymatic activity; assay type: biochemical; details: in vitro enzymatic
# [2] = molecular target: Human HDAC6 (Homo sapiens (Human), UniProt Q9UBN7); assay: HDAC6 enzymatic activity assay (Caliper endpoint or fluorogenic format); assay type: biochemical; details: for pIC50: in vitro enzymatic; for Selectivity (6 v 8) (fold): ratio of HDAC8 IC50/HDAC6 IC50
# Chain of Human HDAC6 (Q9UBN7 whole entry): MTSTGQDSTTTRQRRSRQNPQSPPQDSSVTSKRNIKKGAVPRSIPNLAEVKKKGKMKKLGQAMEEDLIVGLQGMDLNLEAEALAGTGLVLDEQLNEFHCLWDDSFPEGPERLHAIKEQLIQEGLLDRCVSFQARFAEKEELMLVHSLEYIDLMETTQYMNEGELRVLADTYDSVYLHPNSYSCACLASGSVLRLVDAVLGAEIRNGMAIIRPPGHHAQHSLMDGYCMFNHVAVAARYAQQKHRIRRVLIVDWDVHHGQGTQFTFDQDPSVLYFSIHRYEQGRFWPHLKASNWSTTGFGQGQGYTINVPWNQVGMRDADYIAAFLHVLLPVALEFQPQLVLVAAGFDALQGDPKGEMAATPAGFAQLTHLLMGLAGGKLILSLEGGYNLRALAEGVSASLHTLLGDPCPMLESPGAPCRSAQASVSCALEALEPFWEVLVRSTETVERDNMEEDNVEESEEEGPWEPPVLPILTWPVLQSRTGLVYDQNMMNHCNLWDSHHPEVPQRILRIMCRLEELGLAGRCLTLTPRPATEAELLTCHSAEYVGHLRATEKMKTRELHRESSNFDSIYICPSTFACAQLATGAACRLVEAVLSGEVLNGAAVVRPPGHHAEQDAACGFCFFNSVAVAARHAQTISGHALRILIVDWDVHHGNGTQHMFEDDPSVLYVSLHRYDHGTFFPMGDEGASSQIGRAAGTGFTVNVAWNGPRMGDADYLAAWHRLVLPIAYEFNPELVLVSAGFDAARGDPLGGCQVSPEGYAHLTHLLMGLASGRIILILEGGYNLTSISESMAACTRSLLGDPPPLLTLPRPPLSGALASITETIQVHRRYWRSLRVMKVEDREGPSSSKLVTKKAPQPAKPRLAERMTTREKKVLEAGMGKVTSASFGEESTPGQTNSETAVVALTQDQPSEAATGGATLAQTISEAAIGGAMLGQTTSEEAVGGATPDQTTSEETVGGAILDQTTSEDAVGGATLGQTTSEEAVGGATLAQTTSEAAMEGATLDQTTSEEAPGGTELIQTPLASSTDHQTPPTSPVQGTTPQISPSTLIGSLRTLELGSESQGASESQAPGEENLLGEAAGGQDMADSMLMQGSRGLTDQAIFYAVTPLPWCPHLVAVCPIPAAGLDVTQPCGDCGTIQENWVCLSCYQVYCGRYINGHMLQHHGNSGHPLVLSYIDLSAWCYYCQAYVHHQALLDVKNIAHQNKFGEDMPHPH
# Chain of Human HDAC8 (Q9BY41 whole entry): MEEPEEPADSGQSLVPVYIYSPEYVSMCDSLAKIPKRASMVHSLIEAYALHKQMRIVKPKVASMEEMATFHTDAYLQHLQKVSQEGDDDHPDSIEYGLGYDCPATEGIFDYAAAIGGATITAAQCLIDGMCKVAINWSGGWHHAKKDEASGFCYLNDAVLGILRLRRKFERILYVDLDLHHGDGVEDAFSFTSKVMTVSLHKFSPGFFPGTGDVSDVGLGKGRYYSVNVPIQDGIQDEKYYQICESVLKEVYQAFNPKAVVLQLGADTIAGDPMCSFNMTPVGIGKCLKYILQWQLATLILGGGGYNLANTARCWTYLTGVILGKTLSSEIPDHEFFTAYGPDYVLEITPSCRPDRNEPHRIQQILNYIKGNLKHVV
Structure (SMILES),pIC50 [1],pIC50 [2],Selectivity (6 v 8) (fold) [2]
C#Cc1ccccc1OCc1ccc(-c2nnc(C(F)F)o2)cn1 [Compound 41],< 4.00,7.00 to 9.00,V (V: >1000)
N#Cc1ccccc1OCc1ccc(-c2nnc(C(F)F)o2)cn1 [Compound 42],< 4.00,7.00 to 9.00,V (V: >1000)
N#CCc1ccc(OCc2ccc(-c3nnc(C(F)F)o3)cn2)cc1 [Compound 43],4.00 to 5.00,7.00 to 9.00,IV (IV: >100-1000)
N#CCc1ccccc1OCc1ccc(-c2nnc(C(F)F)o2)cn1 [Compound 44],< 4.00,7.00 to 9.00,V (V: >1000)
N#Cc1cc(F)ccc1OCc1ccc(-c2nnc(C(F)F)o2)cn1 [Compound 45],< 4.00,7.00 to 9.00,V (V: >1000)
N#Cc1cccc(OCc2ccc(-c3nnc(C(F)F)o3)cn2)c1F [Compound 46],< 4.00,7.00 to 9.00,V (V: >1000)
N#Cc1ccc(OCc2ccc(-c3nnc(C(F)F)o3)cn2)c(F)c1 [Compound 47],4.00 to 5.00,7.00 to 9.00,V (V: >1000)
N#Cc1cccc(F)c1OCc1ccc(-c2nnc(C(F)F)o2)cn1 [Compound 48],< 4.00,7.00 to 9.00,V (V: >1000)
N#Cc1ccc(F)c(OCc2ccc(-c3nnc(C(F)F)o3)cn2)c1 [Compound 49],4.00 to 5.00,7.00 to 9.00,IV (IV: >100-1000)
N#Cc1ccc(F)cc1OCc1ccc(-c2nnc(C(F)F)o2)cn1 [Compound 50],< 4.00,7.00 to 9.00,V (V: >1000)
N#Cc1cc(F)cc(OCc2ccc(-c3nnc(C(F)F)o3)cn2)c1 [Compound 51],< 4.00,7.00 to 9.00,V (V: >1000)
N#Cc1ccc(OCc2ccc(-c3nnc(C(F)F)o3)cn2)cc1F [Compound 52],< 4.00,7.00 to 9.00,V (V: >1000)
FC(F)c1nnc(-c2ccc(COc3ccc4ocnc4c3)nc2)o1 [Compound 53],< 4.00,7.00 to 9.00,V (V: >1000)
FC(F)c1nnc(-c2ccc(COc3ccc4c(c3)CCCC4)nc2)o1 [Compound 54],< 4.00,7.00 to 9.00,V (V: >1000)
FC(F)c1nnc(-c2ccc(COc3cccc4nccnc34)nc2)o1 [Compound 55],< 4.00,7.00 to 9.00,V (V: >1000)
FC(F)c1nnc(-c2ccc(COc3cccc4cncnc34)nc2)o1 [Compound 56],< 4.00,7.00 to 9.00,V (V: >1000)
Cn1cnc2cc(OCc3ccc(-c4nnc(C(F)F)o4)cn3)ccc21 [Compound 57],4.00 to 5.00,7.00 to 9.00,IV (IV: >100-1000)
Cn1ncc2c(OCc3ccc(-c4nnc(C(F)F)o4)cn3)cccc21 [Compound 58],< 4.00,7.00 to 9.00,V (V: >1000)
Cc1noc2cc(OCc3ccc(-c4nnc(C(F)F)o4)cn3)ccc12 [Compound 59],< 4.00,7.00 to 9.00,V (V: >1000)
Cc1noc2cccc(OCc3ccc(-c4nnc(C(F)F)o4)cn3)c12 [Compound 60],4.00 to 5.00,7.00 to 9.00,V (V: >1000)
Cc1nc2cc(OCc3ccc(-c4nnc(C(F)F)o4)cn3)ccc2o1 [Compound 61],4.00 to 5.00,7.00 to 9.00,IV (IV: >100-1000)
FC(F)c1nnc(-c2ccc(COc3ccc4ncccc4c3)nc2)o1 [Compound 62],4.00 to 5.00,7.00 to 9.00,V (V: >1000)
FC(F)c1nnc(-c2ccc(COc3ccon3)nc2)o1 [Compound 64],< 4.00,6.00 to 7.00,V (V: >1000)
Cn1cc(OCc2ccc(-c3nnc(C(F)F)o3)cn2)cn1 [Compound 65],< 4.00,6.00 to 7.00,V (V: >1000)
Cn1nccc1OCc1ccc(-c2nnc(C(F)F)o2)cn1 [Compound 67],< 4.00,6.00 to 7.00,V (V: >1000)
FC(F)c1nnc(-c2ccc(COc3cnccn3)nc2)o1 [Compound 68],< 4.00,6.00 to 7.00,V (V: >1000)

Structure (SMILES),pIC50 [1],pIC50 [2],Selectivity (6 v 8) (fold) [2]
CCn1ccc(OCc2ccc(-c3nnc(C(F)F)o3)cn2)n1 [Compound 69],4.00 to 5.00,6.00 to 7.00,IV (IV: >100-1000)
Cc1ccc(OCc2ccc(-c3nnc(C(F)F)o3)cn2)cn1 [Compound 70],< 4.00,6.00 to 7.00,V (V: >1000)
Cc1ccnc(OCc2ccc(-c3nnc(C(F)F)o3)cn2)c1 [Compound 71],< 4.00,7.00 to 9.00,V (V: >1000)
Cc1cccc(OCc2ccc(-c3nnc(C(F)F)o3)cn2)n1 [Compound 72],< 4.00,6.00 to 7.00,V (V: >1000)
Cc1cccnc1OCc1ccc(-c2nnc(C(F)F)o2)cn1 [Compound 73],< 4.00,6.00 to 7.00,V (V: >1000)
Cc1cc(OCc2ccc(-c3nnc(C(F)F)o3)cn2)ccn1 [Compound 74],< 4.00,7.00 to 9.00,V (V: >1000)
Cc1cnccc1OCc1ccc(-c2nnc(C(F)F)o2)cn1 [Compound 75],4.00 to 5.00,7.00 to 9.00,IV (IV: >100-1000)
Fc1ccc(OCc2ccc(-c3nnc(C(F)F)o3)cn2)nc1 [Compound 76],< 4.00,7.00 to 9.00,V (V: >1000)
"Fc1cccnc1OCc1ccc(-c2nnc(C(F)F)o2)cn1 [Compound 77, 2-(Difluoromethyl)-5-[6-[(3-fluoro-2-pyridyl)oxymethyl]-3-pyridyl]-1,3,4-oxadiazole]",< 4.00,7.00 to 9.00,V (V: >1000)
CC(C)n1ccc(OCc2ccc(-c3nnc(C(F)F)o3)cn2)n1 [Compound 79],< 4.00,7.00 to 9.00,V (V: >1000)
Cc1nc(Cl)cc(OCc2ccc(-c3nnc(C(F)F)o3)cn2)n1 [Compound 80],5.00 to 6.00,7.00 to 9.00,III (III: >10-100)
FC(F)c1nnc(-c2ccc(COc3cccn4ccnc34)nc2)o1 [Compound 82],< 4.00,7.00 to 9.00,V (V: >1000)
FC(F)c1nnc(-c2ccc(COc3ccc(C4CC4)nn3)nc2)o1 [Compound 83],4.00 to 5.00,6.00 to 7.00,IV (IV: >100-1000)
"FC(F)c1nnc(-c2ccc(COc3ccc(C4CC4)cn3)nc2)o1 [Compound 85, 2-[6-[(5-cyclopropyl-2-pyridyl)oxymethyl]-3-pyridyl]-5-(difluoromethyl)-1,3,4-oxadiazole]",< 4.00,6.00 to 7.00,V (V: >1000)
FC(F)c1nnc(-c2ccc(COc3cncc4ccccc34)nc2)o1 [Compound 88],4.00 to 5.00,7.00 to 9.00,V (V: >1000)
FC(F)c1nnc(-c2ccc(COc3ccc(C(F)(F)F)nc3)nc2)o1 [Compound 91],< 4.00,7.00 to 9.00,V (V: >1000)
FC(F)c1nnc(-c2ccc(COc3cccc(C(F)(F)F)n3)nc2)o1 [Compound 92],< 4.00,7.00 to 9.00,V (V: >1000)
FC(F)c1nnc(-c2ccc(COc3cncc(C(F)(F)F)c3)nc2)o1 [Compound 93],< 4.00,7.00 to 9.00,V (V: >1000)
Cc1nc(OCc2ccc(-c3nnc(C(F)F)o3)cn2)c2ccccc2n1 [Compound 97],< 4.00,7.00 to 9.00,V (V: >1000)
FC(F)c1nnc(-c2ccc(COc3ccnc(N4CCOCC4)n3)nc2)o1 [Compound 99],< 4.00,6.00 to 7.00,V (V: >1000)
FC(F)c1nnc(-c2ccc(COc3cncnc3)nc2)o1 [Compound 102],< 4.00,7.00 to 9.00,V (V: >1000)
Fc1cnc(OCc2ccc(-c3nnc(C(F)F)o3)cn2)nc1 [Compound 106],< 4.00,6.00 to 7.00,V (V: >1000)
"N#Cc1ccc(OCc2ccc(-c3nnc(C(F)F)o3)cn2)cc1 [Compound 118, 4-((5-(5-(difluoromethyl)-1,3,4-oxadiazol-2-yl)pyridin-2-yl)methoxy)benzonitrile]",4.00 to 5.00,7.00 to 9.00,V (V: >1000)
"NC(=O)c1ccc(OCc2ccc(-c3nnc(C(F)F)o3)cn2)cc1 [Compound 122, 4-((5-(5-(difluoromethyl)-1,3,4-oxadiazol-2-yl)pyridin-2-yl)methoxy)benzamide]",< 4.00,< 4.00,V (V: >1000)
"FC(F)c1nnc(-c2ccc(COc3ccn4cnnc4c3)nc2)o1 [Compound 184, 2-(6-(([1,2,4]triazolo[4,3-a]pyridin-7-yloxy)methyl)pyridin-3-yl)-5-(difluoromethyl)-1,3,4-oxadiazole]",< 4.00,6.00 to 7.00,IV (IV: >100-1000)
"CN1CCc2c(OCc3ccc(-c4nnc(C(F)F)o4)cn3)noc2C1 [Compound 191, 3-((5-(5-(Difluoromethyl)-1,3,4-oxadiazol-2-yl)pyridin-2-yl)methoxy)-6-methyl-4,5,6,7-tetrahydroisoxazolo[5,4-c]pyridine]",< 4.00,6.00 to 7.00,IV (IV: >100-1000)
